Holding throughout (type): cell-based
For test [1], the system named is HeLa. The experiment in a line: Inhibition of Golgi mannosidase in human HeLa cells assessed as intracellular high mannose type N-glycans accumulation by measuring increase in fluorescence intensity using ConA-AF488 at 10 uM by confocal laser scanning microscopy analysis.
The next test has as its system OVCAR-3. In words: Inhibition of Golgi mannosidase in human OVCAR-3 cells assessed as inhibition of spheroid formation by measuring size at 10 uM upto 7 days by light microscopy analysis relative to control. The settings on record: time day <=7.
Test [2] has as its system HeLa. In words: Inhibition of Golgi mannosidase in human HeLa cells assessed as high mannose type N-glycans accumulation by measuring reduction in cell length using ConA-AF488 at 10 uM by fluorescence microscopy analysis (reference value: 100%). The settings on record: time day <=7.
The test system of test [3] is HeLa. In words: Inhibition of Golgi mannosidase in human HeLa cells assessed as high mannose type N-glycans accumulation by measuring increase in fluorescence intensity using ConA-AF488 at 10 uM by fluorescence microscopy analysis (reference value: 100%). The settings on record: values are per cent of control.
Test [4] relates to HeLa. The experiment in a line: Inhibition of Golgi mannosidase in human HeLa cells assessed as high mannose type N-glycans accumulation by measuring increase in fluorescence area using ConA-AF488 at 10 uM by fluorescence microscopy analysis (reference value: 100%). The settings on record: values are per cent of control.

Calls of active or inactive are those of the source. The rule behind the calls is not given here.

We go through 11 compounds from ChEMBL document CHEMBL4725224, “A novel Golgi mannosidase inhibitor: Molecular design, synthesis, enzyme inhibition, and inhibition of spheroid formation” (Bioorg Med Chem, 2020).

As a reminder, the inhibition is how much of the control response was suppressed.

Turning to `O=C1N[C@@H]2[C@@H](O)[C@@H](O)[C@H](O)[C@@H](CO)N2C1=O`, the inhibition entry with HeLa [1] was “Active”. For the same compound, the inhibition entry in the test on OVCAR-3 is “inactive”. In addition, in the test on HeLa [2], the inhibition was determined as 13%.

Take `COc1ccc(C(CCNCc2ccc3c(c2)OCO3)c2ccc3c(c2)OCO3)cc1` (centres undefined): the values for the response, % of control in the test on HeLa [3] and in the test with HeLa [4] were 110% and 108%, respectively. In addition, the inhibition in the test on HeLa [2] came out at 26%.

For the compound `c1ccc(C(CCNCc2ccc3c(c2)OCO3)c2ccccc2)cc1`, the response, % of control in the test on HeLa [3] is 114%; with HeLa [4] it was 113%. Also, the inhibition in the test on HeLa [2] was found to be 28%.

Regarding `c1ccc(CNCCC(c2ccccc2)c2ccc3c(c2)OCO3)cc1` (centres undefined), the inhibition with HeLa [2] was found to be 21%.

For the compound `CN(C)c1ccc(CNCCC(c2ccccc2)c2ccccc2)cc1`, the inhibition with HeLa [2] was found to be 32%.

With `COc1ccc(C(CCNCc2ccc(Cl)cc2)c2ccc3c(c2)OCO3)cc1` (centres undefined), the response, % of control with HeLa [4] stood at 150%. Also, the inhibition in the test with HeLa [2] was 27%.

For `CN(C)c1ccc(CNCCC(c2ccccc2)c2ccc3c(c2)OCO3)cc1` (centres undefined), the response, % of control with HeLa [3] and in the test with HeLa [4] was 114% throughout. Moreover, the inhibition with HeLa [2] worked out at 23%.

`Clc1ccc(CNCCC(c2ccccc2)c2ccc3c(c2)OCO3)cc1` (centres undefined): the values for the response, % of control with HeLa [3] and in the test with HeLa [4] were 111% and 115%, respectively. In addition, in the test on HeLa [2], the inhibition amounted to 18%.

Turning to `Clc1ccc(CNCCC(c2ccccc2)c2ccccc2)cc1`, the response, % of control was determined as 134% in the test on HeLa [3] and 127% with HeLa [4]. For the same compound, the inhibition with HeLa [2] came out at 29%.

As for `c1ccc(C(CCNCc2ccc3c(c2)OCO3)c2ccc3c(c2)OCO3)cc1` (centres undefined), the response, % of control in the test on HeLa [3] amounted to 104%; in the test on HeLa [4], 113%. Also, the inhibition in the test on HeLa [2] worked out at 31%.

With `COc1ccc(C(CCNCc2ccc(N(C)C)cc2)c2ccc3c(c2)OCO3)cc1` (centres undefined), the inhibition result in the test with HeLa [1] and in the test on OVCAR-3 was “Active” in each case. Also, in the test with HeLa [4], the response, % of control was found to be 148%. Moreover, the inhibition in the test with HeLa [2] was 28%.
